Each block holds one compound with its values, some of them ahead of it.
How the values were obtained:
[1] = biological target: T1, KRas^G12D (Homo sapiens, UniProt P01116, G12D); assay: KRas binding assay (TR-FRET tracer displacement), KRas G12D
T1 construct: Biotinylated KRas (corresponding to amino acids 1-169, produced at Accelegan Inc.); biotin (biotinylated); purchased Accelegan Inc

[2] = biological target: T2, KRas^G12R (Homo sapiens, UniProt P01116, G12R); assay: KRas binding assay (TR-FRET tracer displacement), KRas G12R
T2 construct: Biotinylated KRas (corresponding to amino acids 1-169, produced at Accelegan Inc.); biotin (biotinylated); purchased Accelegan Inc

[3] = tested on: KRas-mediated phosphorylation of ERK in H727 cells; assay: Inhibition of KRas-mediated phosphorylation of ERK (Cisbio HTRF pERK), H727 cells; type: cell-based; conditions: Homo sapiens; for IC50: NCI-H727, H727 cells, HTRF pERK
Procedure, shortened: (§1)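 6,000 cells/well; cpd 10 uM top, 3-fold x10, 0.8% DMSO final; 3 hr incubation; Min ctrl Trametinib 0.2 uM; lysis 40 min 4° C shaking; d2 + Cryptate Ab mix, 2 hr RT; HTRF read.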

[4] = tested on: KRas-mediated phosphorylation of ERK in AsPC-1 cells; assay: Inhibition of KRas-mediated phosphorylation of ERK (Cisbio HTRF pERK), AsPC-1 cells; type: cell-based; conditions: Homo sapiens; for IC50: ASPC1, AsPC-1 cells, HTRF pERK
Procedure, shortened: as §1

[5] = biological target: T3, KRas^G12V (Homo sapiens, UniProt P01116, G12V); assay: KRas binding assay (TR-FRET tracer displacement), KRas G12V
T3 construct: Biotinylated KRas (corresponding to amino acids 1-169, produced at Accelegan Inc.); biotin (biotinylated); purchased Accelegan Inc
T3 sequence (P01116 1-169 isoform P01116-2 G12V): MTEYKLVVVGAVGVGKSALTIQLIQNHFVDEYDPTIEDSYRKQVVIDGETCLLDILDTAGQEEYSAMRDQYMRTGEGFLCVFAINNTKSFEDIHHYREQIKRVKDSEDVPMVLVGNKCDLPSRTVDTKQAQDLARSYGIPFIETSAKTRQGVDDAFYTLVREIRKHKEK

T2 sequence (P01116 1-169 isoform P01116-2 G12R): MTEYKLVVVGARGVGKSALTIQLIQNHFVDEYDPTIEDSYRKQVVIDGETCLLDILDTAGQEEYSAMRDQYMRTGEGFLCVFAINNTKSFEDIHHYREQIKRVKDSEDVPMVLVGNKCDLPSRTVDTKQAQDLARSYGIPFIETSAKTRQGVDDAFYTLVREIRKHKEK
T1 sequence (P01116 1-169 isoform P01116-2 G12D): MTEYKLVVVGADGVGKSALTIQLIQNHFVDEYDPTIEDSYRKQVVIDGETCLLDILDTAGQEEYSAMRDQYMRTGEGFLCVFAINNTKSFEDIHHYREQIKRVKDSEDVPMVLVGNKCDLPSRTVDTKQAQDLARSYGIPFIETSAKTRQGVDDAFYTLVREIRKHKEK

Structure (SMILES): CCc1c(F)ccc2cc(O)cc(-c3ncc4c(N5CCCn6nc(C(=O)N(C)CCO)cc6C5)nc(OC[C@@]56CCCN5C[C@H](F)C6)nc4c3F)c12 [Example 679, 5-(7-(8-ethyl-7-fluoro-3-hydroxynaphthalen-1-yl)-8-fluoro-2-(((2R,7aS)-2-fluorohexahydro-1H-pyrrolizin-7a-yl)methoxy)pyrido[4,3-d]pyrimidin-4-yl)-N-(2-hydroxyethyl)-N-methyl-5,6,7,8-tetrahydro-4H-pyrazolo[1,5-a][1,4]diazepine-2-carboxamide]
IC50 [1]: 124 nM
IC50 [2]: 190 nM
IC50 [3]: 9490 nM
IC50 [4]: > 10000 nM
IC50 [5]: 105 nM

Structure (SMILES): CCc1c(F)ccc2cc(O)cc(-c3ncc4c(NCc5cc(C(=O)N(C)C)n([C@H]6C[C@H](O)C6)n5)nc(OC[C@@]56CCCN5C[C@H](F)C6)nc4c3F)c12 [Example 680, 3-(((7-(8-ethyl-7-fluoro-3-hydroxynaphthalen-1-yl)-8-fluoro-2-(((2R,7aS)-2-fluorohexahydro-1H-pyrrolizin-7a-yl)methoxy)pyrido[4,3-d]pyrimidin-4-yl)amino)methyl)-1-(trans-3-hydroxycyclobutyl)-N,N-dimethyl-1H-pyrazole-5-carboxamide]
IC50 [1]: 473 nM
IC50 [2]: 234 nM
IC50 [3]: > 10000 nM
IC50 [4]: > 10000 nM
IC50 [5]: 43 nM

Structure (SMILES): CCc1c(F)ccc2cc(O)cc(-c3ncc4c(NCc5cc(C(=O)N(C)C)n([C@H]6C[C@@H](O)C6)n5)nc(OC[C@@]56CCCN5C[C@H](F)C6)nc4c3F)c12 [Example 681, 3-(((7-(8-ethyl-7-fluoro-3-hydroxynaphthalen-1-yl)-8-fluoro-2-(((2R,7aS)-2-fluorohexahydro-1H-pyrrolizin-7a-yl)methoxy)pyrido[4,3-d]pyrimidin-4-yl)amino)methyl)-1-(cis-3-hydroxycyclobutyl)-N,N-dimethyl-1H-pyrazole-5-carboxamide]
IC50 [1]: 497 nM
IC50 [2]: 167 nM
IC50 [3]: > 10000 nM
IC50 [4]: > 10000 nM
IC50 [5]: 51 nM

Structure (SMILES): CCc1c(F)ccc2cc(O)cc(-c3ncc4c(NCc5cc(C(=O)N(C)C)nn5[C@H]5C[C@H](O)C5)nc(OC[C@@]56CCCN5C[C@H](F)C6)nc4c3F)c12 [Example 682, 5-(((7-(8-ethyl-7-fluoro-3-hydroxynaphthalen-1-yl)-8-fluoro-2-(((2R,7aS)-2-fluorotetrahydro-1H-pyrrolizin-7a(5H)-yl)methoxy)pyrido[4,3-d]pyrimidin-4-yl)amino)methyl)-1-(trans-3-hydroxycyclobutyl)-N,N-dimethyl-1H-pyrazole-3-carboxamide]
IC50 [1]: 710 nM
IC50 [2]: 541 nM
IC50 [3]: > 10000 nM
IC50 [4]: > 10000 nM
IC50 [5]: 192 nM

Structure (SMILES): CCc1c(F)ccc2cc(O)cc(-c3ncc4c(NCc5cc(C(=O)N(C)C)nn5C[C@H]5C[C@H](O)C5)nc(OC[C@@]56CCCN5C[C@H](F)C6)nc4c3F)c12 [Example 686, 5-(((7-(8-ethyl-7-fluoro-3-hydroxynaphthalen-1-yl)-8-fluoro-2-(((2R,7aS)-2-fluorohexahydro-1H-pyrrolizin-7a-yl)methoxy)pyrido[4,3-d]pyrimidin-4-yl)amino)methyl)-1-((trans-3-hydroxycyclobutyl)methyl)-N,N-dimethyl-1H-pyrazole-3-carboxamide]
IC50 [1]: 21 nM
IC50 [2]: 5 nM
IC50 [3]: 8840 nM
IC50 [4]: > 10000 nM
IC50 [5]: 6 nM

Structure (SMILES): CCc1c(F)ccc2cc(O)cc(-c3ncc4c(NCc5cc(C(=O)N(C)C)n(CC6CC(O)C6)n5)nc(OC[C@@]56CCCN5C[C@H](F)C6)nc4c3F)c12 (stereo partly drawn) [Example 688, 3-(((7-(8-ethyl-7-fluoro-3-hydroxynaphthalen-1-yl)-8-fluoro-2-(((2R,7aS)-2-fluorohexahydro-1H-pyrrolizin-7a-yl)methoxy)pyrido[4,3-d]pyrimidin-4-yl)amino)methyl)-1-((3-hydroxycyclobutyl)methyl)-N,N-dimethyl-1H-pyrazole-5-carboxamide]
IC50 [1]: 357 nM
IC50 [2]: 160 nM
IC50 [3]: > 10000 nM
IC50 [4]: > 10000 nM
IC50 [5]: 42 nM

Continued by falling IC50 [1], values first:

IC50 [1]: 1980 nM
IC50 [2]: 1250 nM
IC50 [3]: 3120 nM
IC50 [4]: 1240 nM
IC50 [5]: 966 nM
Structure (SMILES): CCc1c(F)ccc2cc(O)cc(-c3ncc4c(N5C[C@@H]6[C@@H](CS(N)(=O)=O)NC(=O)[C@@H]6C5)nc(OC[C@@]56CCCN5C[C@H](F)C6)nc4c3F)c12 [Example 665, 1-((1S,3aS,6aR)-5-(7-(8-ethyl-7-fluoro-3-hydroxynaphthalen-1-yl)-8-fluoro-2-(((2R,7aS)-2-fluorotetrahydro-1H-pyrrolizin-7a(5H)-yl)methoxy)pyrido[4,3-d]pyrimidin-4-yl)-3-oxooctahydropyrrolo[3,4-c]pyrrol-1-yl)methanesulfonamide]

IC50 [1]: 680 nM
IC50 [2]: 699 nM
IC50 [3]: > 10000 nM
IC50 [4]: > 10000 nM
IC50 [5]: 1740 nM
Structure (SMILES): CCc1c(F)ccc2cc(O)cc(-c3ncc4c(N5CCCn6nc(S(N)(=O)=O)cc6C5)nc(OC[C@@]56CCCN5C[C@H](F)C6)nc4c3F)c12 [Example 661, 5-(7-(8-ethyl-7-fluoro-3-hydroxynaphthalen-1-yl)-8-fluoro-2-(((2R,7aS)-2-fluorohexahydro-1H-pyrrolizin-7a-yl)methoxy)pyrido[4,3-d]pyrimidin-4-yl)-5,6,7,8-tetrahydro-4H-pyrazolo[1,5-a][1,4]diazepine-2-sulfonamide]

IC50 [1]: 445 nM
IC50 [2]: 323 nM
IC50 [3]: 6050 nM
IC50 [4]: 6150 nM
IC50 [5]: 203 nM
Structure (SMILES): CCc1c(F)ccc2cc(O)cc(-c3ncc4c(N5CCOCC6(CCS(=O)(=O)CC6)C5)nc(OC[C@@]56CCCN5C[C@H](F)C6)nc4c3F)c12 [Example 667, 11-(7-(8-ethyl-7-fluoro-3-hydroxynaphthalen-1-yl)-8-fluoro-2-(((2R,7aS)-2-fluorohexahydro-1H-pyrrolizin-7a-yl)methoxy)pyrido[4,3-d]pyrimidin-4-yl)-8-oxa-3-thia-11-azaspiro[5.6]dodecane 3,3-dioxide]

IC50 [1]: 405 nM
IC50 [2]: 175 nM
IC50 [3]: > 10000 nM
IC50 [4]: > 10000 nM
IC50 [5]: 145 nM
Structure (SMILES): CCc1c(F)ccc2cc(O)cc(-c3ncc4c(NCc5cc(C(=O)N(C)C)nn5C[C@H]5C[C@@H](O)C5)nc(OC[C@@]56CCCN5C[C@H](F)C6)nc4c3F)c12 [Example 687, 5-(((7-(8-ethyl-7-fluoro-3-hydroxynaphthalen-1-yl)-8-fluoro-2-(((2R,7aS)-2-fluorohexahydro-1H-pyrrolizin-7a-yl)methoxy)pyrido[4,3-d]pyrimidin-4-yl)amino)methyl)-1-((cis-3-hydroxycyclobutyl)methyl)-N,N-dimethyl-1H-pyrazole-3-carboxamide]

IC50 [1]: 89 nM
IC50 [2]: 16 nM
IC50 [3]: > 10000 nM
IC50 [4]: > 10000 nM
IC50 [5]: 11 nM
Structure (SMILES): CCc1c(F)ccc2cc(O)cc(-c3ncc4c(NCc5cc(C(=O)N(C)C)nn5[C@H]5C[C@@H](O)C5)nc(OC[C@@]56CCCN5C[C@H](F)C6)nc4c3F)c12 [Example 678, 5-(((7-(8-ethyl-7-fluoro-3-hydroxynaphthalen-1-yl)-8-fluoro-2-(((2R,7aS)-2-fluorohexahydro-1H-pyrrolizin-7a-yl)methoxy)pyrido[4,3-d]pyrimidin-4-yl)amino)methyl)-1-(cis-3-hydroxycyclobutyl)-N,N-dimethyl-1H-pyrazole-3-carboxamide]

IC50 [1]: 34 nM
IC50 [2]: 16 nM
IC50 [3]: > 10000 nM
IC50 [4]: > 10000 nM
IC50 [5]: 12 nM
Structure (SMILES): CCc1c(F)ccc2cc(O)cc(-c3ncc4c(NCc5cc(C(=O)N(C)C)n(CCC#N)n5)nc(OC[C@@]56CCCN5C[C@H](F)C6)nc4c3F)c12 [Example 668, 1-(2-cyanoethyl)-3-(((7-(8-ethyl-7-fluoro-3-hydroxynaphthalen-1-yl)-8-fluoro-2-(((2R,7aS)-2-fluorohexahydro-1H-pyrrolizin-7a-yl)methoxy)pyrido[4,3-d]pyrimidin-4-yl)amino)methyl)-N,N-dimethyl-1H-pyrazole-5-carboxamide]

IC50 [1]: 32 nM
IC50 [2]: < 2 nM
IC50 [3]: 2040 nM
IC50 [4]: 9490 nM
IC50 [5]: 3 nM
Structure (SMILES): CCc1c(F)ccc2cc(O)cc(-c3ncc4c(NCc5cn(C(=O)N(C)C)nc5NC(C)=O)nc(OC[C@@]56CCCN5C[C@H](F)C6)nc4c3F)c12 [Example 675, 3-acetamido-4-(((7-(8-ethyl-7-fluoro-3-hydroxynaphthalen-1-yl)-8-fluoro-2-(((2R,7aS)-2-fluorohexahydro-1H-pyrrolizin-7a-yl)methoxy)pyrido[4,3-d]pyrimidin-4-yl)amino)methyl)-N,N-dimethyl-1H-pyrazole-1-carboxamide]

IC50 [1]: 13 nM
IC50 [2]: < 2 nM
IC50 [3]: 4580 nM
IC50 [5]: < 2 nM
Structure (SMILES): CCc1c(F)ccc2cc(O)cc(-c3ncc4c(NCc5cc(C(=O)N(C)C)nn5C5CCC5O)nc(OC[C@@]56CCCN5C[C@H](F)C6)nc4c3F)c12 (stereo partly drawn) [Example 677, 5-(((7-(8-ethyl-7-fluoro-3-hydroxynaphthalen-1-yl)-8-fluoro-2-(((2R,7aS)-2-fluorotetrahydro-1H-pyrrolizin-7a(5H)-yl)methoxy)pyrido[4,3-d]pyrimidin-4-yl)amino)methyl)-1-(2-hydroxycyclobutyl)-N,N-dimethyl-1H-pyrazole-3-carboxamide]
inhibition at 0.1 µM ([3]; NCI-H727, 3 h, single point, 100 nM compound, 3 hrs, H727 cells): 2%
inhibition at 0.1 µM ([4]; ASPC1, 3 h, single point, 100 nM compound, 3 hrs, AsPC-1 cells): -8%

Source: patent US20260015350A1, “AZAQUINAZOLINE PAN-KRAS INHIBITORS” (Mirati Therapeutics, Inc., priority 2022, published 2026)
